| SMILES | melting point [°C] |
| --- | --- |
| CCC(CC)COc1cnc(N)nc1N | 173 to 174 |
| CCN(C(C)=O)c1ccc(O)cc1 | 183 to 185 |
| CCCCCCC(Oc1ccc(C2=CCCCC2)cc1)C(=O)O (centres undefined) | 70 to 71 |
| CN1C(=O)CCC2(C)c3ccc(Sc4ccc5ccccc5c4)cc3CCC12 (single isomer, unassigned; (+)) | 138 to 140 |
| C=CCN1CCN(C2=NC3(C=CC(=O)C=C3)C(Sc3ccccc3)=C2)CC1 | 175 |
| CC1(C)CC(=O)c2c(C3CC3)sc(-c3nccs3)c2C1 | 103 to 105 |
| CN1CCC(c2c[nH]c3ccc(Sc4ccc(Cl)cc4)cc23)CC1 | 148 to 150 |
| CC(C)Cn1nc(O)nc1Cl | 84 to 86 |
| O=C(O)c1cn(C2CC2)c2c(F)c(N3CCC(N=Cc4ccc(Cl)cc4)C3)c(F)cc2c1=O (centres undefined) | 232 to 237 |
| CC(C)c1nc2c(nc1C(C)C)C(=O)CCC2 | 92 to 94 |
| COc1cc(Cl)cc(Cl)c1O | 62 |
| Oc1cc(-c2ccc(Cl)cc2Cl)n[nH]1 | 198 |
| BrCc1ncc(Br)cn1 | 55 to 57 |
| Cc1ccc2c(c1F)N(C1CC1)C=NS2(=O)=O | 189 to 192 |
| CCOc1cc2c(cc1O)C(=O)CC1C2CCC2(C)C(O)CCC12 (centres undefined) | 194 to 196 |
| CC(=O)N1CCN(CCOc2cc(OC(C)C)c3c(Nc4c(Cl)cnc5c4OCO5)ncnc3c2)CC1 | 208 to 210 |
| O=C(O)c1cn(CC2CCCCC2)c2cc(Cl)ccc12 | 170 to 172 |
| COC(=O)c1cncn1C(c1ccccc1)c1ccccc1 | 129 |

| SMILES | melting point [°C] |
| --- | --- |
| O=C1N(Nc2ccccc2)C(=S)OC12c1ccccc1-c1ccccc12 | 187 to 189 |
| C=CC(c1cn(-c2ccccc2)nc1OCc1ccc(OCc2nc(-c3ccco3)oc2C)c(OC)c1)n1cncn1 (centres undefined) | 115 to 116 |
| O=C1NC(=O)C(Cc2ccc(OCCON=Cc3cccnc3)cc2)S1 (centres undefined) | 155 to 157 |
| OC1CSC(Oc2ccc(-c3ccc(OC(F)(F)F)cc3)nc2)C(O)C1O (centres undefined) | 184 to 186 |
| Oc1cc(-n2cc3c(n2)CCCC3)c(Cl)cc1Cl | 84 to 86 |
| O=C(Oc1ccc([N+](=O)[O-])cc1)C(O)C(O)C(=O)Oc1ccc([N+](=O)[O-])cc1 (centres undefined) | 163 to 164 |
| CCOCCNC(=O)c1ccc(-c2ccc(C(CC3CCOCC3)c3ccc(S(=O)(=O)C4CC4)cc3)[nH]2)nc1 (centres undefined) | 87 to 90 |
| CCCCCCCCCCCCCCNCc1ccc(OCc2cccc(F)c2)cc1 | 58 |
| CCCCN(CCO)c1cccc(O)c1 | 45 to 47 |
| CC1(C)C(=O)N(CCCN(CCCN2C(=O)c3ccccc3C(C)(C)C2=O)Cc2ccccc2)C(=O)c2ccccc21 | 108 |
| O=C(NCCO)C(F)(OC(F)(F)C(F)(F)C(F)(F)F)C(F)(F)F (centres undefined) | 69 to 72 |
| CC(C)(C)OC(=O)c1ccc(N2CC(CN=[N+]=[N-])OC2=O)cc1F (centres undefined) | 91 to 92 |
| CNC(=NS(C)(=O)=O)NCCCSc1ncc(Br)c(NC(N)=NCC(F)(F)F)n1 | 166 to 167 |
| Cc1ccc(C2c3c(C)c(-n4cc5cc6c(cc5c4)OCO6)c(C)c(C)c3OC2(C)C)cc1 (centres undefined) | 236 to 242 |
| O=[N+]([O-])c1cc(C(F)(F)F)c(Cl)c([N+](=O)[O-])c1Nc1cc(C(F)(F)F)cc(C(F)(F)F)n1 | 169 to 170 |
| CCC(=C(c1ccccc1)c1ccc(C=CCO)cc1)c1ccccc1 | 80 to 83 |
| CC1(CCN)OCCc2c1[nH]c1ccccc21 (centres undefined) | 80 to 84 |
| CCCC(CCC)n1c(CC)nc2c1C(=O)N(C)C(C)N2c1ccc(Cl)cc1Cl (centres undefined) | 144 to 146 |

More lines, now with the values ahead:

| melting point [°C] | SMILES |
| --- | --- |
| 109 to 110 | COc1ccc(C(=O)c2ccc(OCc3nc(-c4ccccc4)oc3C)cc2C)c(O)c1 |
| 200 to 203 | CC(=O)c1cc(-c2c(Cl)ccc(C(=O)O)c2Cl)n(C)n1 |
| 112 to 114 | CN1C(=O)CCC1(O)c1ccc(Cl)c(S(=O)(=O)Cl)c1 (centres undefined) |
| 220 to 222 | CC1(C)CN(C(=O)Nc2cccnc2)c2cc(C#N)ccc21 |
| 96 to 98 | COc1ccc(C(=O)Nc2c(Cl)cc(C=O)cc2Cl)cc1OC1CCCC1 |
| 136 | COC(=O)c1ccc(-c2ccc(Cl)cc2)c(-c2ccc(Cl)cc2Cl)c1 |
| 63 to 67 | COc1ccc(CCNC(=O)OC(C)(C)C)cc1OC |
| 146 to 147 | CN1CC(CCN2C(=O)c3ccccc3C2=O)Oc2ncccc2C1=O (centres undefined) |
| 198 to 200 | Cc1ccc(S(=O)(=O)NC(CC(N)=O)C(=O)O)cc1 (centres undefined) |
| 107 to 109 | Cc1ccc(Oc2ccc(-n3cncn3)cc2)c(O)c1 |
| 117 to 118 | COC1c2ccccc2CSc2ccc(C#N)cc21 (centres undefined) |
| 205 | CCOc1ccc2[nH]c(=O)n(-c3ccccn3)c2c1 |
| 95.6 to 97.6 | CCOC(=O)c1cn2c3ccc(Br)cc3c3cc(OC)cc(c1=O)c32 |
| 123 to 127 | COc1cccc(S(=O)(=O)c2ccc3c(c2)c(CCN(C)C(=O)OC(C)(C)C)c(C)n3C)c1 |
| 208 to 209 | CC(=O)NC[C@H]1CN(c2ccc(N3CCN(C(=O)CCC(=O)c4ccc(Cl)cc4)CC3)c(F)c2)C(=O)O1 |
| 178 to 179 | CC(C)(Cc1ccccc1)C(NC(=O)c1cccc(Cl)c1)Nc1c(Nc2cccnc2)c(=O)c1=O (single isomer, unassigned; (-)) |
| 158 to 159 | CCOC(=O)c1c(Nc2c(C)cccc2Cl)n[nH]c1C |

| melting point [°C] | SMILES |
| --- | --- |
| 138 to 140 | CN1C(=O)N(C[C@H](C(=O)NOCc2ccccc2)[C@@H](CC2CCCC2)C(=O)N2CCCCC2)C(=O)C1(C)C |
| 135 to 136 | COC(=O)CCc1cc2cc(C(F)(F)F)ccc2n1S(=O)(=O)c1ccc2nc(N)sc2c1 |
| 139 to 141 | COc1ccc(C2=NN(CC(=O)Nc3ccc(C4=NNC(=O)CC4C)cc3)C(=O)C3CC=CCC23)cc1OC (centres undefined) |
| 108 to 110 | COC(=O)c1cc2cc(OC)c(OCCCl)cc2nc1N=CN(C)C |
| 232 to 234 | NC(=O)c1sc2nccc(NCCCc3ccccc3)c2c1N |
| 110 to 111 | CCOP(=O)(/C=C/c1cn(-c2ccccc2)nc1OCc1ccc(OCc2nc(-c3ccccc3)sc2C)c(OC)c1)OCC |
| 127 to 129 | COC1(Nc2ccccc2CCCc2ccc(Cl)c(Cl)c2)CC=C(C(=O)O)C=C1[N+](=O)[O-] (centres undefined) |
| 222 to 224 | COc1cc2nc3ccc(SC)cc3sc-2cc1=O |
| 137 to 138 | CCC(NC(C)=O)c1ccc(CN2CCN(c3ccc(F)cc3F)CC2)cc1 (centres undefined) |
| 103 to 110 | COc1cc2c(cc1Nc1ncc(Cl)c(N[C@@H]3CCCC[C@H]3NS(C)(=O)=O)n1)CCN(CC(F)(F)F)CC2 |
| 162 | COC(=O)C(NC(=O)Nc1ccc(C=NO)cc1)C(=O)OC |
| 161 to 162 | COc1cc(C)nc(NC(=O)NS(=O)(=O)c2ccccc2NC(C)=O)n1 |
| 59 to 61 | COC(=O)C(CC(=O)c1ccc(Oc2ccccc2)cc1)SC(C)=O (centres undefined) |
| 122 to 124 | CCCCCC(Cc1cnc(SCCC)n1Cc1ccccc1Cl)C(=O)O (centres undefined) |
| 220 | COc1cccc(C2=C(C#N)C(c3ccccc3[N+](=O)[O-])c3c[nH]nc3N2)c1 (centres undefined) |
| 156 to 159 | CCN(CC)S(=O)(=O)c1ccccc1S(N)(=O)=O |

From a melting point compilation (Tetko et al.; mined from patent text by program, amines drawn as free bases though some values may be those of a salt)
